These results are taken from patent publication US20240165259A1, “BIOORTHOGONAL REACTION SUITABLE FOR CLICK/UNCLICK APPLICATIONS” (DANA-FARBER CANCER INSTITUTE, INC., priority 2021, published 2024).

This assay concerns cell surface HaloTag-GFP expressed on HEK293T cells. Kind of assay: Live cell labeling experiment (confocal microscopy). It is filed as cell-based. Conditions: 10 μM 21′, then 10 μM 22′ for 1 hour, fixed. The procedure:
Live cell labeling by hydroamination was explored. HEK293T cells were transiently transfected with a cell surface HaloTag-GFP construct, treated with 10 μM HaloTag linker-conjugated difluoropropargyl ether 21′, washed, and incubated with 10 μM TAMRA-conjugated hydroxylamine 22′ for 1 hour. The cells were then fixed and visualized by confocal microscopy.
Cell Culture: HEK-293T cells were cultured in Dulbecco's Modified Eagle Medium (DMEM, Corning®) containing 10% fetal bovine serum (FBS, Sigma), 100 units/mL penicillin, and 0.1 mg/mL streptomycin (Sigma) in a humidified chamber at 37° C. with 5% CO2. Cells were passaged and dissociated with 0.25% trypsin, 0.1% EDTA in HBSS (Corning®). Cells tested negative for […] by the MycoAlert PLUS Mycoplasma Detection Kit (Lonza) following the manufacturer's protocol.
Preparation for 12-Well Plate: Coverslips (15 mm circle, thickness 0.13-0.17 mm) were acid-washed according to the Cold Spring Harbor protocol (Fischer et al., Cold Spring Harb. Protoc. 2008:pdb.prot4988 (2008)). A coverslip was added to each well in a 12-well plate followed by an aqueous solution of poly-D-lysine (0.1 mg/mL, 30-70 kDa, 800 μL). The plate was gently shaken to distribute the solution evenly, incubated at room temperature for 1 hour, washed using 1 mL of autoclaved deionized water for each well, and dried overnight. […]

Regarding `CN(O)CCOCCNC(=O)c1ccc2c(c1)C1(OC2=O)c2ccc(N(C)C)cc2Oc2cc(N(C)C)ccc21` [compound 13, 3′,6′-bis(dimethylamino)-N-(2-(2-(hydroxy(methyl)amino)ethoxy)ethyl)-3-oxo-3H-spiro[isobenzofuran-1,9′-xanthene]-6-carboxamide], the “live cell labeling (TAMRA signal)” value was “localized at the cell surface and co-localized with the GFP signal of transfected cells”.
